The results in this text go back to patent publication US11800869B2, “Use of 6-oxo-1,4,5,6-tetrahydropyridazine-3-carboxylic acid, 1-methyl 6-oxo-1,4,5,6-tetrahydropyridazine-3-carboxylic acid and 1-alkyl-6-oxo-1,4,5,6-tetrahydropyridazine-3-carboxylic acid for improving growth performance in plants” (Advanced Crop Chem LLP, priority 2020, dated 2023).

“And” between values parts separate entries of the source, which are not always exact repeats. Equal entries are not always repeated.

Common to all, as to format: in vivo
Experiment [1] has as its system Winter wheat variety AWC 13. Put plainly: Wheat seed treatment, greenhouse, root biomass (Example 1). The following applies: seed treatment 10g per 1 ton of seed; greenhouse 21° C; 30 days after planting; untreated 0.65. How it is done:
(§1) Wheat seeds were treated with 6-oxo-1,4,5,6 tetrahydropyridazine-3-carboxylic acid (THP) and treated plants to examine the impact on shoot and root biomass. Winter wheat variety AWC 13 seeds were treated with either 6-oxo-1,4,5,6-tetrahydropyridazine-3-carboxylic acid (THP) or 1-methyl 6-oxo-1,4,5,6 tetrahydropyridazine-3-carboxylic acid (MTHP) at an effective rate of 10g diluted in 2 L water plus 0.25% Nouryon wetter and applied to 1 ton of seed. These seed were planted in coarse river sand and grown in a greenhouse under ambient light at the greenhouse at 21° C. Plants were irrigated every other day with water containing 50% strength Hoaglands solution. Plants were assessed for emergence and biomass accumulation 30 days after planting. The plants from seeds treated with 6-oxo-1,4,5,6-tetrahydropyridizin-3-carboxylic acid or 1-methyl 6-oxo-1,4,5,6 tetrahydropyridazine-3-carboxylic acid had larger root biomasses (0.83, 0.85 g, dry weight/plant) compared with plants from untreated seeds (0.65 g dry weight/plant).

Another experiment has as its system Pepper. As to the kind of experiment: Seed treatment plus foliar spray, root and shoot biomass and emergence, pepper (Example 2). On the procedure:
as §1, with “Winter” for “Wheat seeds were treated with 6-oxo-1,4,5,6 tetrahydropyridazine-3-carboxylic acid (THP) and treated plants to examine the impact on shoot and root biomass. Winter”, “weight/plant). Wheat, corn and pepper seeds were treated with 6-oxo-1,4,5,6-tetrahydropyridizine-3-carboxylic acid (THP) using the same methodology and growth conditions as described in example 1 and the resulting plants were also treated with a light foliar cover spray using an electric hand-held sprayer. (100 g in 200 L water plus 0.25% Nouryon wetter) of 6-oxo-1,4,5,6 tetrahydropyridazine-3-carboxylic acid (30 days post emergence (wheat at Zadoks GS 14 (see FIG. 1), maize at V2, Pepper at 3-4 leaf stage) and then assessed for root and shoot biomass 45 days later. At 75 days post planting the plants were assessed for root and shoot biomass as measured with dry weight.” for “weight/plant).”

For experiment [2], the system named is wheat (Var. VitPro) seedlings. Put plainly: Foliar treatment of wheat, relative water content under drought stress (Example 17). The following applies: drought stressed, flag leaves, untreated drought stressed 35.8%. On the procedure: Wheat seedlings were given foliar treatments with a range of concentrations of 6-oxo-1,4,5,6 tetrahydropyridazine-3-carboxylic acid and the seedlings were grown to near maturity and drought stressed. Their relative water contents were determined to examine the effectiveness of different concentrations of 6-oxo-1,4,5,6-tetrahydropyridizine-3-carboxylic acid in conferring drought resistance.
Sets of wheat (Var. VitPro) seedlings were given foliar treatments of 6-oxo-1,4,5,6 tetrahydropyridazine-3-carboxylic acid at concentrations of 1 mM or 0.1 mM in aqueous solutions. Two treatments were made; one at Zaddok GS 12(FIG. 1) and a second at Zadoks GS 14 (FIG. 1) and the plants grown until the first flag leaf was fully developed on the control plants. The treated plants and one set of controls were then drought stressed and the relative water content was determined for each set of plants. There were two sets of control plants; one was maintained with normal watering and a second control was drought stressed along with the treated plants. When each of the plants had at least two wilted leaves the water content of the drought stressed plants was determined relative to that of the normal, well-watered control plants. The flag leaves were harvested and used to determine the relative water content.

Experiment [3] deals with Soybean seeds (Var. Viking). Put plainly: Soybean seed treatment, germination paper, shoot fresh weight (Example 10). The following applies: seeds imbibed three minutes in 0.01 mM; germination paper 75-85° F; two table lines, Control 98.3 and 106.2. How it is done:
Soybean seeds were treated with 6-oxo-1,4,5,6 tetrahydropyridazine-3-carboxylic acid and the weights of the shoots were determined as shown in Table 2. Early seedling emergence is important for early establishment of a vigorous and productive crop. Soybean seeds (Var. Viking) were treated by imbibing them for three minutes with a solution of 0.01 mM 6-oxo-1,4,5,6 tetrahydropyridazine-3-carboxylic acid in an aqueous solution also containing soft soap and glycerol at pH 5.7-5.8. The control seeds were imbibed in aqueous solution containing only the soft soap and glycerol at pH 5.7-5.8. The seeds were placed on moist germination paper and allowed to germinate at 75-85° F. The fresh weights were taken to assess the shoot development.

Another experiment concerns Wheat. Put plainly: Foliar treatment dose series, root and shoot fresh weight, wheat (Example 8). The following applies: 35 days post treatment; for Root, FWt: dose 0: 1.8; for Shoot, FWt: dose 0: 3.2. How it is done: Corn and wheat plants were given a foliar treatment […] (as described in Example 2) with 6-oxo-1,4,5,6 tetrahydropyridazine-3-carboxylic acid (THP) and then assessed for root and shoot biomass. Three treatment dosages were applied (Table 2). Plants were grown in a greenhouse with a diurnal cycle of 55-75F with ambient light. The plants were grown in a coarse river sand in 4″ pots with 0.5 g of Osmacote/pot. The mean root and shoot fresh weights were assessed at 35 days post treatment.

Experiment [4] deals with wheat plants (Variety Skyfall). As to the kind of experiment: Foliar treatment of greenhouse grown wheat, foliar and root biomass (Example 4). The following applies: foliar treatment, 30 days later, Zadocks growth stage 22-24. How it is done:
Wheat, corn and pepper seeds were treated with 6-oxo-1,4,5,6-tetrahydropyridizine-3-carboxylic acid (THP) using the same methodology and growth conditions as described in example 1 and the resulting plants were also treated with a light foliar cover spray using an electric hand-held sprayer. (100 g in 200 L water plus 0.25% Nouryon wetter) of 6-oxo-1,4,5,6 tetrahydropyridazine-3-carboxylic acid (30 days post emergence (wheat at Zadoks GS 14 (see FIG. 1), maize at V2, Pepper at 3-4 leaf stage) and then assessed for root and shoot biomass 45 days later. At 75 days post planting the plants were assessed for root and shoot biomass as measured with dry weight. Greenhouse grown wheat plants (Variety […]) were given foliar treatment of 1-methyl 6-oxo-1,4,5,6 tetrahydropyridazine-3-carboxylic acid (MTHP) or 6-oxo-1,4,5,6 tetrahydropyridazine-3-carboxylic acid (THP), utilizing the same methodology as in example 2. Foliar and root biomass were determined 30 days later at Zadocks growth stage 22-24.

[5] abbreviates: seed treatment plus foliar spray 100 g in 200 L, 75 days post planting.
The mark [6] stands for this setting: foliar dose 50 g/ha in 200 L/ha.
Where [7] appears, read: foliar dose 100 g/ha in 200 L/ha.
Where [8] appears, read: foliar dose 200 g/ha in 200 L/ha.

For the compound `O=C1CCC(C(=O)O)=NN1` [THP, 6-oxo-1,4,5,6 tetrahydropyridazine-3-carboxylic acid], in experiment [1], the root biomass was 0.83 g, dry weight/plant. Moreover, the “Root Dry Weight, % Difference vs Untreated” value in the experiment on Pepper (setting [5]) was 19%. In addition, the “Shoot Dry Weight, % Difference vs Untreated” value with Pepper (setting [5]) was 9%. The “Emergence, % Difference vs Untreated” value with Pepper (seed treatment, % Emergence at 10 days post planting) stood at 24%. Besides, the entries for the “water content retained, relative to normally watered plants” value in experiment [2] (two foliar treatments 0.1 mM) and in experiment [2] (two foliar treatments 1 mM) were 67.7% and 68.3%, respectively. Also, in experiment [3], the “Shoots, Fresh wt.” value is 114.3 mg and 128.6 mg. The “Root, FWt” value in the experiment with Wheat (setting [6]) is 2.1 g; in the experiment with Wheat (setting [7]) it was 1.9 g; with Wheat (setting [8]), 2.7 g. The “Shoot, FWt” value is reported as 4.4 g with Wheat (setting [6]), 5.2 g in the experiment with Wheat (setting [7]) and 5.8 g in the experiment on Wheat (setting [8]). Also, in experiment [4] (Con 0.55), the “Dry Weight Shoot” value was determined as 0.74 g. Besides, the “Dry Weight Root” value in experiment [4] (Con 1.03) was 1.45 g.
